The text below walks through data of patent US7026348B2, “Indole sPLA2 inhibitors” (Eli Lilly and Company, priority 1998, dated 2006).

The assay addresses T1, recombinant human secreted phospholipase A2 (Homo sapiens, UniProt P14555).
T1 sequence (P14555 21-144): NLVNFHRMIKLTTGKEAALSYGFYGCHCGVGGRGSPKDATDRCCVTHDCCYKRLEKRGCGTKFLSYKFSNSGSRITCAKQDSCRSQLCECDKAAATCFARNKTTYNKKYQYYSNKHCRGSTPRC
In words: chromogenic assay of recombinant human secreted phospholipase A2 inhibition. It counts as biochemical. The settings on record: diheptanoyl thio-PC substrate, pH 7.5, 40° C. for 30 minutes, absorbance at 405 nanometers, triplicate; read-out: Inhibition of human secreted PLA2 IC50 ± mean deviation. The source says:
The following chromogenic assay procedure was used to identify and evaluate inhibitors of recombinant human secreted phospholipase A2. The assay described herein has been adapted for high volume screening using 96 well microtiter plates. A general description of this assay method is found in the article, “Analysis of Human Synovial Fluid Phospholipase A2 on Short Chain Phosphatidylcholine-Mixed Micelles: Development of a Spectrophotometric Assay Suitable for a Microtiterplate Reader”, by Laure J. Reynolds, Lori L. Hughes, and Edward A Dennis, Analytical Biochemistry, 204, pp. 190-197, 1992 (the disclosure of which is incorporated herein by reference):
REACTION BUFFER— • CaCl2.2H2O (1.47 g/L) • KCl (7.455 g/L) • Bovine Serum Albumin (fatty acid free)(1 g/L) • (Sigma A-7030, product of Sigma Chemical Co., St. Louis Mo., USA) • TRIS HCl (3.94 g/L) • pH 7.5 (adjust with NaOH)
ENZYME BUFFER— • 0.05 NaOAc.3H2O, pH 4.5 • 0.2 NaCl • Adjust pH to 4.5 with acetic acid
DTNB—5,5′-dithiobis-2-nitrobenzoic acid
RACEMIC DIHEPTANOYL THIO—PC
racemic 1,2-bis(heptanoylthio)-1,2-dideoxy-sn-glycero-3-phosphorylcholine
TRITON X-100™ prepare at 6.249 mg/ml in reaction buffer to equal […].
A measured volume of racemic dipheptanoyl thio PC supplied in chloroform at a concentration of 100 mg/ml is taken to dryness and redissolved in 10 millimolar
TRITON X-100™ nonionic detergent aqueous solution. Reaction Buffer is added to the solution, then DTNB to give the Reaction Mixture.
The reaction mixture thus obtained contains 1 mM diheptanoly thio-PC substrate, 0.29 mm Triton X-100™ detergent, and 0.12 mm DTMB in a buffered aqueous solution at pH 7.5.
• 1. Add 0.2 ml reaction mixture to all wells; • 2. Add 10 ul test compound (or solvent blank) to appropriate wells, mix 20 seconds; • 3. Add 50 nanograms of sPLA2 (10 microliters) to appropriate wells; • 4. Incubate plate at 40° C. for 30 minutes; • 5. Read absorbance of wells at 405 nanometers with an automatic plate reader.
All compounds were tested in triplicate. Typically, compounds were tested at a final concentration of 5 ug/ml. […] Lack of color development at 405 nanometers evidenced inhibition. Compounds initially found to be active were reassayed to confirm their activity and, if sufficiently active, IC50 values were determined. […] In all cases, % inhibition measured at 405 nanometers generated by enzyme reactions containing inhibitors relative to the uninhibited control reactions was determined. Each sample was titrated in triplicate and result values were averaged for plotting and calculation of IC50 values. IC50 were determined by plotting log concentration versus inhibition values in the range from 10-90% inhibition.

Where a name gives a salt, the structure may show the parent alone.

As for `CCc1c(C(=O)C(N)=O)c2c(OCC(=O)NS(C)(=O)=O)cccc2n1Cc1ccccc1` [Example 1, 1-benzyl-2-ethyl-4-methanesulfonamidoylmethyloxy-indole-3-glyoxylamide], the IC50 (usually the point on the concentration scale where inhibition reaches its midpoint) came out at 12 nM.

Take `CCc1c(C(=O)C(N)=O)c2c(OCC(=O)NS(=O)(=O)c3ccccc3)cccc2n1Cc1ccccc1` [Example 2, 1-benzyl-2-ethyl-4-benzenesulfonamidoylmethyloxy-indole-3-glyoxylamide]: the IC50 was 7 nM.

For the molecule `CCc1c(C(=O)C(N)=O)c2c(OCC(=O)NS(=O)(=O)C(F)(F)F)cccc2n1Cc1ccccc1` [Example 3, 1-benzyl-2-ethyl-4-trifluoromethanesulfonamidoylmethyloxy-indole-3-glyoxylamide], the IC50 turned out to be 17 nM.

Turning to `CCc1c(C(=O)C(N)=O)c2c(OCC(=O)NS(=O)(=O)c3ccccc3C)cccc2n1Cc1ccccc1` [Example 4, 1-benzyl-2-ethyl-4-(2-methylbenzenesulfonamidoylmethyloxy)-indole-3-glyoxylamide], the IC50 turned out to be 9 nM.

In the case of `CCc1c(C(=O)C(N)=O)c2c(OCC(=O)NS(=O)(=O)c3ccc(CCN)cc3)cccc2n1Cc1ccccc1` [Example 5, 1-benzyl-2-ethyl-4-(4-(2-aminoethyl)benzenesulfonamidoylmethyloxy)-indole-3-glyoxylamide, Hydrochloride Salt], the 50% inhibitory concentration (IC50) amounted to 16 nM.
